# Assay results published in patent US11040038B2, “Methods for treating diseases associated with abnormal ACVR1 expression and ACVR1 inhibitors for use in the same” (Sumitomo Dainippon Pharma Oncology, Inc., priority 2018, dated 2021).
# Tests used:
# [1] = system: SMAD1/5 phosphorylation in BMP2 stimulated HepG2 cells; assay: Inhibition of SMAD1/5 phosphorylation in BMP2 stimulated HepG2 cells; type: cell-based; conditions: Homo sapiens; HepG2 cells stimulated with BMP2
# Description: SMAD proteins are transcription factors involved in signaling downstream of TGFβ receptors. The TGFβ receptor ALK2 phosphorylates SMADs when activated by bone morphogenic proteins such as BMP2, which leads to SMAD nuclear translocation, transcriptional initiation and increased expression of genes like HAMP which codes for the peptide hormone hepcidin. Therefore, compounds that target ALK2 should inhibit BMP induced SMAD phosphorylation. In order to evaluate the in vitro potency of Compound 2, HepG2 cells were stimulated with the ALK2 ligand BMP2 in the presence or absence of various concentrations of Compound 2.
# [2] = system: hepcidin expression in HepG2 cells; assay: Inhibition of hepcidin expression in HepG2 cells (qPCR); type: cell-based; conditions: Homo sapiens
# Protocol: To evaluate the in vitro efficacy of Compound 2, HepG2 cells were stimulated with the ALK2 ligand BMP-2 in the presence or absence of various concentrations of Compound 2 and the resulting levels of hepcidin expression were measured by qPCR. The results shown in FIG. 2A, reveal a strong, dose responsive inhibition of hepcidin transcription by Compound 2 (EC50<1 nM). Effects on basal hepcidin transcription were also measured (in the absence of BMP-2 stimulation) and the results are shown in FIG. 2B. Under these experimental conditions, Compound 2 inhibited hepcidin expression in a dose responsive manner (IC50˜100 nM).
# [3] = Comparison of concentration in plasma and brain tissue; type: in vivo, mice; conditions: 20 mg/kg
# Description: Additionally, a comparison of Compound 2 concentration in the plasma and brain tissue was made, the results of which are in FIG. 4B and Table 6.
# [4] = Pharmacokinetic and tissue distribution study; type: in vivo, CD-1 male mice; conditions: mice, 20 mg/kg PO; for Cmax / Tmax / half-life / AUC(0-t) / AUC: male, CD-1, mouse; for AUC: read-out: AUC0-?
# Protocol: An additional pharmacokinetic and tissue distribution study was conducted to comprehensively evaluate Compound 2 exposure in multiple mouse organs. CD-1 male mice were dosed 20 mg/kg, PO with Compound 2 formulated in 20% solutol and 80% saline. Plasma and organs were collected at nine (9) time points and the drug concentrations were determined by LC-MS/MS. […] The results confirmed exposure in clinically relevant target organs, including brain and liver (Table 7).
# [5] = Oral pharmacokinetics in a single human DIPG patient; type: in vivo; conditions: free base, nominal 240 mg/m2 PO
# Protocol: Compound 2 free base was tested in humans. Oral pharmacokinetics of Compound 2 were determined in a single human patient for the treatment of DIPG. The formulation was free base Compound 2 by gelatin capsule daily for 15 days, followed by a 20-day suspension period. Dosing was resumed by dissolving in juice and administering via nasogastric tube for 9 days. The nominal dose is 240 mg/m2 (PO). Blood samples were collected at four (4) time points and the drug concentrations are determined by LC-MS/MS.
# Additional PK parameters were evaluated.
compound,measurement,setting,value
"COc1cc(Nc2nccc(Nc3cccnc3-c3ccccn3)n2)ccc1N1CCN(C)CC1 [Compound 2, N^4-(2,2′-bipyridin-3-yl)-N^2-(3-methoxy-4-(4-methylpiperazin-1-yl)phenyl)pyrimidine-2,4-diamine]",EC50,[1],162 nM
same,EC50,"[2]; BMP-2 stimulation, qPCR, read-out: EC50, inhibition of hepcidin transcription",< 1 nM
same,IC50,"[2]; absence of BMP-2 stimulation, read-out: IC50, inhibition of basal hepcidin expression",~100 nM
same,Cmax,"[3]; CD-1, mouse, po, brain",1690 ng/g
same,Cmax,"[3]; CD-1, mouse, po, plasma",378 ng/mL
same,AUC,"[3]; CD-1, mouse, po, plasma, read-out: AUC",2340 ng·h/mL
same,AUC,[3]; brain,"7,765 ng/g · hr"
same,Cmax,[4]; adrenals,13800 ng/g
same,Tmax,[4]; adrenals,1.3 h
same,half-life,[4]; adrenals,3.3 h
same,Cmax,[4]; bladder,2220 ng/g
same,Tmax,[4]; bladder,3 h
same,half-life,[4]; bladder,3.1 h
same,AUC(0-t),[4]; bone marrow,1940 ng·h/mL
same,Cmax,[4]; bone marrow,240 ng/mL
same,Tmax,[4]; bone marrow,4.5 h
same,half-life,[4]; bone marrow,4.6 h
same,AUC,[4]; bone marrow,2020 ng·h/mL
same,Cmax,[4]; brain,1690 ng/g
same,Tmax,[4]; brain,3.2 h
same,half-life,[4]; brain,2.6 h
same,Cmax,[4]; intestine,20200 ng/g
same,Tmax,[4]; intestine,1.8 h
same,half-life,[4]; intestine,3.6 h
same,Cmax,[4]; kidney,31100 ng/g
same,Tmax,[4]; kidney,2.3 h
same,half-life,[4]; kidney,2.5 h
same,Cmax,[4]; liver,79900 ng/g
same,Tmax,[4]; liver,0.8 h
same,half-life,[4]; liver,3.3 h
same,Cmax,[4]; lung,18300 ng/g
same,Tmax,[4]; lung,1.3 h
same,half-life,[4]; lung,2.8 h
same,Cmax,[4]; pancreas,10600 ng/g
same,Tmax,[4]; pancreas,3.2 h
same,half-life,[4]; pancreas,2.6 h
same,AUC(0-t),[4]; plasma,2340 ng·h/mL
same,Cmax,[4]; plasma,378 ng/mL
same,Tmax,[4]; plasma,1 h
same,half-life,[4]; plasma,3.8 h
same,AUC,[4]; plasma,2380 ng·h/mL
same,Cmax,[4]; spleen,36200 ng/g
same,Tmax,[4]; spleen,6 h
same,half-life,[4]; spleen,13.3 h
same,Cmax,[4]; stomach,17300 ng/g
same,Tmax,[4]; stomach,0.5 h
same,half-life,[4]; stomach,3.6 h
same,AUC0-?,[4]; adrenals,76421 ng*h/G
same,AUCLast,[4]; adrenals,75782 ng*h/G
same,AUC0-?,[4]; bladder,17546 ng*h/G
same,AUCLast,[4]; bladder,17386 ng*h/G
same,AUC0-?,[4]; brain,7756 ng*h/G
same,AUCLast,[4]; brain,7729 ng*h/G
same,AUC0-?,[4]; intestine,52421 ng*h/G
same,AUCLast,[4]; intestine,51891 ng*h/G
same,AUC0-?,[4]; kidney,152790 ng*h/G
same,AUCLast,[4]; kidney,152492 ng*h/G
same,AUC0-?,[4]; liver,286210 ng*h/G
same,AUCLast,[4]; liver,284827 ng*h/G
same,AUC0-?,[4]; lung,76908 ng*h/G
same,AUCLast,[4]; lung,76622 ng*h/G
same,AUC0-?,[4]; pancreas,53297 ng*h/G
same,AUCLast,[4]; pancreas,53163 ng*h/G
same,AUC0-?,[4]; spleen,627382 ng*h/G
same,AUCLast,[4]; spleen,406119 ng*h/G
same,AUC0-?,[4]; stomach,32717 ng*h/G
same,AUCLast,[4]; stomach,32467 ng*h/G
same,"Oral absorption, detection in plasma",[5],detected in plasma 24 hours post-dosing
